Experimental data reported in patent publication US6914045B2, “Glycopeptide antibiotics” (Wyeth Holdings Corporation, priority 2001, dated 2005).
≈ marks a conversion by molar mass, not a printed value.

Legend:
Assay in all cases: in vitro antibacterial evaluation, MIC by broth dilution
Format in all cases: cell-based
[1] = system: Escherichia coli; details: 18 hours at 35° C.
[2] = system: Staphylococcus sp.; details: broth dilution, 18 hours at 35° C.
In short: (§1)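 MIC, the lowest antibiotic concentration preventing growth, was read across 64-0.06 μg/mL with 5×10^5 CFU/mL inoculum. Method followed NCCLS M7-A2 broth dilution using Mueller-Hinton II; Gram-positive strains covered recent methicillin-, penicillin- and/or vancomycin-resistant clinical isolates.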

[3] = system: Enterococcus sp.; details: broth dilution, 18 hours at 35° C.
In short: as §1

[4] = system: Streptococcus sp.; details: broth dilution, 18 hours at 35° C.
In short: as §1

MIC Escherichia coli (ATCC 25922) [1]: 64 µg/mL (≈ 45.7 µM) | MIC Escherichia coli (GC 4559) [1]: 64 µg/mL (≈ 45.7 µM) | MIC Escherichia coli (GC 4560) [1]: 1 µg/mL (≈ 0.715 µM) | MIC Coagulase Negative Staphylococcus (GC 4547) [2]: 1 µg/mL (≈ 0.715 µM) | MIC Coagulase Negative Staphylococcus (GC 4548) [2]: 1 µg/mL (≈ 0.715 µM) | MIC Coagulase Negative Staphylococcus (GC 4549) [2]: 0.5 µg/mL (≈ 0.357 µM) | MIC Coagulase Negative Staphylococcus (GC 4551) [2]: 2 µg/mL (≈ 1.43 µM) | MIC Coagulase Negative Staphylococcus (GC 6257) [2]: 1 µg/mL (≈ 0.715 µM) | MIC Staphylococcus aureus (ATCC 29213) [2]: 2 µg/mL (≈ 1.43 µM) | MIC Staphylococcus aureus (GC 1131) [2]: 2 µg/mL (≈ 1.43 µM) | MIC Staphylococcus aureus (GC 3051) [2]: 2 µg/mL (≈ 1.43 µM) | MIC Staphylococcus aureus (GC 3053) [2]: 2 µg/mL (≈ 1.43 µM) | MIC Staphylococcus aureus (GC 4541) [2]: 2 µg/mL (≈ 1.43 µM) | MIC Staphylococcus aureus (GC 4542) [2]: 2 µg/mL (≈ 1.43 µM) | MIC Staphylococcus aureus (GC 4544) [2]: 2 µg/mL (≈ 1.43 µM) | MIC Staphylococcus aureus (GC 4545) [2]: 2 µg/mL (≈ 1.43 µM) | MIC Staphylococcus aureus-SMITH (GC 4543) [2]: 2 µg/mL (≈ 1.43 µM) | MIC Staphylococcus aureus (ATCC 29213) ([2]; strain ATCC 29213): 2 µg/mL (≈ 1.43 µM) | MIC Staphylococcus aureus (GC 1131) ([2]; strain GC 1131): 2 µg/mL (≈ 1.43 µM) | MIC Staphylococcus aureus (GC 3051) ([2]; strain GC 3051): 2 µg/mL (≈ 1.43 µM) | MIC Staphylococcus aureus (GC 3053) ([2]; strain GC 3053): 2 µg/mL (≈ 1.43 µM) | MIC Staphylococcus aureus (GC 4541) ([2]; strain GC 4541): 2 µg/mL (≈ 1.43 µM) | MIC Staphylococcus aureus (GC 4542) ([2]; strain GC 4542): 2 µg/mL (≈ 1.43 µM) | MIC Staphylococcus aureus-SMITH (GC 4543) ([2]; strain GC 4543): 2 µg/mL (≈ 1.43 µM) | MIC Staphylococcus aureus (GC 4544) ([2]; strain GC 4544): 2 µg/mL (≈ 1.43 µM) | MIC Staphylococcus aureus (GC 4545) ([2]; strain GC 4545): 2 µg/mL (≈ 1.43 µM) | MIC Coagulase Negative Staphylococcus (GC 4547) ([2]; strain GC 4547): 1 µg/mL (≈ 0.715 µM) | MIC Coagulase Negative Staphylococcus (GC 4548) ([2]; strain GC 4548): 1 µg/mL (≈ 0.715 µM) | MIC Coagulase Negative Staphylococcus (GC 4549) ([2]; strain GC 4549): 0.5 µg/mL (≈ 0.357 µM) | MIC Coagulase Negative Staphylococcus (GC 4551) ([2]; strain GC 4551): 2 µg/mL (≈ 1.43 µM) | MIC Coagulase Negative Staphylococcus (GC 6257) ([2]; strain GC 6257): 1 µg/mL (≈ 0.715 µM) | MIC Enterococcus avium (GC 4558) [3]: 8 µg/mL (≈ 5.72 µM) | MIC Enterococcus faecalis (ATCC 29212) [3]: 8 µg/mL (≈ 5.72 µM) | MIC Enterococcus faecalis (GC 2242) [3]: 4 µg/mL (≈ 2.86 µM) | MIC Enterococcus faecalis (GC 2691) [3]: 8 µg/mL (≈ 5.72 µM) | MIC Enterococcus faecalis (GC 3059) [3]: 8 µg/mL (≈ 5.72 µM) | MIC Enterococcus faecalis (GC 4552) [3]: 8 µg/mL (≈ 5.72 µM) | MIC Enterococcus faecalis (GC 4553) [3]: 8 µg/mL (≈ 5.72 µM) | MIC Enterococcus faecalis (GC 4554) [3]: 8 µg/mL (≈ 5.72 µM) | MIC Enterococcus faecalis (GC 6189) [3]: 8 µg/mL (≈ 5.72 µM) | MIC Enterococcus faecium (GC 2243) [3]: 8 µg/mL (≈ 5.72 µM) | MIC Enterococcus faecium (GC 4556) [3]: 8 µg/mL (≈ 5.72 µM) | MIC Enterococcus faecium (GC 4557) [3]: 2 µg/mL (≈ 1.43 µM) | MIC Enterococcus faecalis (ATCC 29212) ([3]; strain ATCC 29212): 8 µg/mL (≈ 5.72 µM) | MIC Enterococcus faecium (GC 2243) ([3]; strain GC 2243): 8 µg/mL (≈ 5.72 µM) | MIC Enterococcus faecalis (GC 4552) ([3]; strain GC 4552): 8 µg/mL (≈ 5.72 µM) | MIC Enterococcus faecalis (GC 4553) ([3]; strain GC 4553): 8 µg/mL (≈ 5.72 µM) | MIC Enterococcus faecalis (GC 4554) ([3]; strain GC 4554): 8 µg/mL (≈ 5.72 µM) | MIC Enterococcus faecium (GC 4556) ([3]; strain GC 4556): 8 µg/mL (≈ 5.72 µM) | MIC Enterococcus faecium (GC 4557) ([3]; strain GC 4557): 2 µg/mL (≈ 1.43 µM) | MIC Enterococcus avium (GC 4558) ([3]; strain GC 4558): 8 µg/mL (≈ 5.72 µM) | MIC Enterococcus faecalis (GC 6189) ([3]; strain GC 6189): 8 µg/mL (≈ 5.72 µM) | MIC Enterococcus faecalis (GC 2242) ([3]; inoculum 5×10^5 CFU/mL, strain GC 2242): 4 µg/mL (≈ 2.86 µM) | MIC Enterococcus faecalis (GC 2691) ([3]; inoculum 5×10^5 CFU/mL, strain GC 2691): 8 µg/mL (≈ 5.72 µM) | MIC Enterococcus faecalis (GC 3059) ([3]; inoculum 5×10^5 CFU/mL, strain GC 3059): 8 µg/mL (≈ 5.72 µM) | MIC Streptococcus agalactiae (GC 4564) [4]: 0.5 µg/mL (≈ 0.357 µM) | MIC Streptococcus pneumoniae (ATCC 6301) [4]: 0.25 µg/mL (≈ 0.179 µM) | MIC Streptococcus pneumoniae (GC 1894) [4]: 0.12 µg/mL (≈ 0.0857 µM) | MIC Streptococcus pneumoniae (GC 4565) [4]: 0.25 µg/mL (≈ 0.179 µM) | MIC Streptococcus pyogenes (GC 4563) [4]: 0.5 µg/mL (≈ 0.357 µM) | MIC Streptococcus pneumoniae (ATCC 6301) ([4]; inoculum 5×10^5 CFU/mL, strain ATCC 6301): 0.25 µg/mL (≈ 0.179 µM) | MIC Streptococcus pneumoniae (GC 1894) ([4]; inoculum 5×10^5 CFU/mL, strain GC 1894): 0.12 µg/mL (≈ 0.0857 µM) | MIC Streptococcus pyogenes (GC 4563) ([4]; inoculum 5×10^5 CFU/mL, strain GC 4563): 0.5 µg/mL (≈ 0.357 µM) | MIC Streptococcus agalactiae (GC 4564) ([4]; inoculum 5×10^5 CFU/mL, strain GC 4564): 0.5 µg/mL (≈ 0.357 µM) | MIC Streptococcus pneumoniae (GC 4565) ([4]; inoculum 5×10^5 CFU/mL, strain GC 4565): 0.25 µg/mL (≈ 0.179 µM)
SMILES: Cc1ccc(COCC2OC(OC3C(CO)OC(Oc4ccc(CC5NC(=O)C(C(C)c6ccccc6)NC(=O)CNC(=O)C(CO)NC(=O)C(C(O)C6CNC(=N)N6C6OC(CO)C(O)C(O)C6O)NC(=O)C(C(O)C6CNC(=N)N6)NC5=O)cc4)C(O)C3O)C(O)C(O)C2O)cc1 (stereo not shown) [Example 234]
MIC Staphylococcus haemolyticus (GC 4546) [2]: 1 µg/mL (≈ 0.715 µM) | MIC Staphylococcus haemolyticus (GC 4546) ([2]; strain GC 4546): 1 µg/mL (≈ 0.715 µM)
